What all share (type): physicochemical
Data set [1] is described as follows: Paramagnetism in solution by the NMR method (D2O solvent, t-butyl alcohol reference). The following applies: 300 K. From the text: (§1) The magnetic properties of the fullerol were characterized by several methods. […] A solid sample was further studied using a Quantum Design MPMS-5S […] magnetometer operating at 5 Tesla. […] After correction for the diamagnetic contribution of the sample (using data from C60 for the fullerene carbons and Pascal's constants for the OH groups), the final value of the effective magnetic moment, μb, of the C60(OH)32 is approximately 1.5 Bohr magnetons at 300 K. Given the large diamagnetic contribution, uncertainty in the diamagnetic correction factors, and assuming no spin orbit or other types of spin coupling, this is within the experimental error for predicting one free electron per fullerol molecule in the solid state. A measurement of the paramagnetism of the solution form of the acid fullerol was then conducted using the NMR method employing D2O as the solvent and t-butyl alcohol as the reference compound. Measurement of the chemical shift of the reference peaks indicated a paramagnetism of 2.1 Bohr magnetons at 300 K when in solution.

A short description of data set [2]: Air stability of the paramagnetic fullerol. From the text: According to a second embodiment, a water-soluble, paramagnetic fullerene derivative comprising about 32 hydroxyl groups attached to C60 fullerene was synthesized and shown to be air-stable, paramagnetic, and an efficient water proton relaxation agent.
These experimental results make C60(OH)32 (or C60(OH)32^− or C60(OH)32^2−) the first reported water-soluble, air-stable fullerene paramagnetic radical.

Data set [3] can be described thus: Effective magnetic moment of solid sample, Quantum Design MPMS-5S magnetometer at 5 Tesla. The following applies: 300 K, after diamagnetic correction.
Text: as §1

A short description of data set [4]: Water proton relaxivity (T1), Bruker PC/20 relaxometer. As to conditions: 20 MHz (0.47 T), 40° C., four concentrations. The procedure: The paramagnetic fullerol's potential as an MRI relaxation agent was evaluated by direct measurement of its water proton relaxivity using a Bruker model PC/20 relaxometer (Bruker Ltd., Canada) operating at a fixed field of 20 MHz (0.47 T) and 40° C. Four separate measurements at four different concentrations were performed to determine the T1 relaxation. A plot of the results is shown in FIG. 3 and indicates a relaxivity of about 0.5 mM^−1sec^−. The relaxivity of the compound is thus considerably lower than the best currently available Gd-chelates (ca. […]) but is still large enough to be useful in the body.

Data set [5] can be described thus: Water solubility of the C60(OH)32 fullerol.

We go through 1 substance from patent US6355225B1, “Fullerene contrast agent for magnetic resonance imaging and spectroscopy” (Wm. Marsh Rice University TDA Research, Inc., priority 1999, dated 2002).

C60(OH)32 showed a paramagnetism in solution in data set [1] of 2.1 Bohr magnetons. Moreover, in data set [2], the stability in air entry is listed as “air-stable”. Also, the effective magnetic moment entry in data set [3] was “approximately 1.5 Bohr magnetons”. Besides, in data set [4], the “water proton relaxivity (T1)” value was “about 0.5 mM^−1sec^−”. The solubility in water entry in data set [5] is listed as “at least 4 mM”.
